In this assay the target is T1, Alpha-mannosidase 2 (Drosophila melanogaster, UniProt Q24451).
T1 sequence (Q24451 whole entry): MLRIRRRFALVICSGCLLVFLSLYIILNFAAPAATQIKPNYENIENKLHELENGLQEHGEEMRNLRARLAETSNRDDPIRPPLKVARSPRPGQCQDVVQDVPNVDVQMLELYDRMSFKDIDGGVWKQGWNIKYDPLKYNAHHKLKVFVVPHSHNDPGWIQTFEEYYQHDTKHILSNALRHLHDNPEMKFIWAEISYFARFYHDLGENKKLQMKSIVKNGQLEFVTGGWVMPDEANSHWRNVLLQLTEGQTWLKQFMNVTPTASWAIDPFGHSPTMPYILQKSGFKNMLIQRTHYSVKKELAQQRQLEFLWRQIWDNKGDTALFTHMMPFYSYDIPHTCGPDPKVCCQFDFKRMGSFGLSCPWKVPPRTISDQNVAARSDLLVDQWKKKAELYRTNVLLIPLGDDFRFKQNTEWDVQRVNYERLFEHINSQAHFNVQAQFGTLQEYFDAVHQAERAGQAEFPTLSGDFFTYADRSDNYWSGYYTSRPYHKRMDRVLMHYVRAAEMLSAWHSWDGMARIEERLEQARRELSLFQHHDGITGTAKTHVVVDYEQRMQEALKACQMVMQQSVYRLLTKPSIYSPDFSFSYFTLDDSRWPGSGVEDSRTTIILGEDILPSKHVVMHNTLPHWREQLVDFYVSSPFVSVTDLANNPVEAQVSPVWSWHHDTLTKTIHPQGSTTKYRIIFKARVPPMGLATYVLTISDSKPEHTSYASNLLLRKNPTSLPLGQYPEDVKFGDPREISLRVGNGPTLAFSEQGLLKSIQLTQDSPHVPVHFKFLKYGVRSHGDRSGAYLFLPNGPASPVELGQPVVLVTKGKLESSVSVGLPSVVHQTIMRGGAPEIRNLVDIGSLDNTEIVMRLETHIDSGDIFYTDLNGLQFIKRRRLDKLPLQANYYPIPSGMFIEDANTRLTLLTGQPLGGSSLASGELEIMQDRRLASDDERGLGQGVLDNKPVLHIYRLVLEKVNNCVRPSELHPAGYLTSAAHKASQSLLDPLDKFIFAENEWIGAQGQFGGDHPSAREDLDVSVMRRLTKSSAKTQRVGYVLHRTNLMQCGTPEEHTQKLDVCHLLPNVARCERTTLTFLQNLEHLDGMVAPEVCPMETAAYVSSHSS
The experiment in a line: Inhibition Assay. As to conditions: pH 5.75; 25 °C.

The term IC50 denotes the midpoint of a concentration-inhibition curve. A low value points to inhibition by little substance. In turn, `CC(C)(C)c1ccc(C(=O)C[C@H]2CC[C@@H](O)C3[C@H](O)[C@H](O)CN32)cc1` (stereo not given in full) [Swainsonine derivative, 4] registered an IC50 of 29 nM.

`O=C(C[C@H]1CC[C@@H](O)C2[C@H](O)[C@H](O)CN21)c1ccccc1` (stereo not given in full) [Swainsonine derivative, 2] showed an IC50 of 30 nM.

In turn, `Cc1ccc(C(=O)C[C@H]2CC[C@@H](O)C3[C@H](O)[C@H](O)CN32)cc1` (stereo not given in full) [Swainsonine derivative, 3] came in with an IC50 of 29 nM. The IC50 values of the last two compounds are within 1.5-fold of each other. A word on the Ki: it is the equilibrium dissociation constant of an inhibitor or competing ligand from its target. Lower therefore signals tighter binding. Consider `O[C@H]1[C@H]2[C@H](O)CCCN2C[C@H]1O` [(-)-swainsonine], for which the IC50 is 37 nM and the Ki came out at 3 nM.

The values are drawn from BindingDB's records for doi:10.1002/cbic.200900750 (University of Toronto, 2010).
